{"source": "patent US20200239530A1", "about": "“COMPOUNDS AND METHODS OF MODULATING PROTEIN DEGRADATION” (Vividion Therapeutics, Inc., priority 2017, published 2020)", "test_in_all_cases": "Cysteine liganding, probe competition", "assay_type_in_all_cases": "binding", "key": {"UniProt Q495X7": {"biological_target": "T1, UniProt Q495X7 (Homo sapiens, UniProt Q495X7)", "T1 construct": "200 μL of lysate containing 5 mg/ml proteome was treated with 2 μL of 100× compound stock; endogenous in cells", "T1 sequence (Q495X7 1-471)": "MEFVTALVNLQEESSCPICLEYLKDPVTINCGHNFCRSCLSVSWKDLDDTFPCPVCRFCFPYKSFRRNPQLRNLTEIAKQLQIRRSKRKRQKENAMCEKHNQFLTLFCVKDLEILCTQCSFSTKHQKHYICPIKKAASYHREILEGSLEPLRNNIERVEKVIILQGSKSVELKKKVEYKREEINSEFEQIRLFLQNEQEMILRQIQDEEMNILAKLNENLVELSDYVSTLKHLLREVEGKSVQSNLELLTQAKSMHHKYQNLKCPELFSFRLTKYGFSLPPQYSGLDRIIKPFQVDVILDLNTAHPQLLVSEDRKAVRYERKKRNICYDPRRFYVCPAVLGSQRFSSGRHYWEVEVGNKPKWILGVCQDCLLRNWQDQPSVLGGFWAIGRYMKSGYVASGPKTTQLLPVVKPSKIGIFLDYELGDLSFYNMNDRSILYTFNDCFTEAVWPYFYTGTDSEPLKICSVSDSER", "from_the_text": "(§1) The following 96-well sample prep protocol was used for sample preparation."}, "UniProt Q6VVB1": {"biological_target": "T2, UniProt Q6VVB1 (Homo sapiens, UniProt Q6VVB1)", "T2 construct": "Cells were resuspended in cold PBS on ice and sonicated with a probe sonicator to achieve lysis; endogenous in cells", "T2 sequence (Q6VVB1 whole entry, change not shown)": "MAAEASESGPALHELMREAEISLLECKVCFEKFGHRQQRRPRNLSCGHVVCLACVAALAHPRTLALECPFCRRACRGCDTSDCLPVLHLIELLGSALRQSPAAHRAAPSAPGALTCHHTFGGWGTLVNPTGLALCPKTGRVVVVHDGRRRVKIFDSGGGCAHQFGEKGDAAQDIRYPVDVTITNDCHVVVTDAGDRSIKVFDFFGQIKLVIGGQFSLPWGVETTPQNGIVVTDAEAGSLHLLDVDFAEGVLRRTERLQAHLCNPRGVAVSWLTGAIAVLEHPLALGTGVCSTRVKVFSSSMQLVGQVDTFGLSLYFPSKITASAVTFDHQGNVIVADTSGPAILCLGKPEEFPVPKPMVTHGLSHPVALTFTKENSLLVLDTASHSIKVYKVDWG", "from_the_text": "as §1"}, "UniProt Q6ZMU5": {"biological_target": "T3, UniProt Q6ZMU5 (Homo sapiens, UniProt Q6ZMU5)", "T3 construct": "200 μL of lysate containing 5 mg/ml proteome was treated with 2 μL of 100× compound stock; endogenous in cells", "T3 sequence (Q6ZMU5 1-477)": "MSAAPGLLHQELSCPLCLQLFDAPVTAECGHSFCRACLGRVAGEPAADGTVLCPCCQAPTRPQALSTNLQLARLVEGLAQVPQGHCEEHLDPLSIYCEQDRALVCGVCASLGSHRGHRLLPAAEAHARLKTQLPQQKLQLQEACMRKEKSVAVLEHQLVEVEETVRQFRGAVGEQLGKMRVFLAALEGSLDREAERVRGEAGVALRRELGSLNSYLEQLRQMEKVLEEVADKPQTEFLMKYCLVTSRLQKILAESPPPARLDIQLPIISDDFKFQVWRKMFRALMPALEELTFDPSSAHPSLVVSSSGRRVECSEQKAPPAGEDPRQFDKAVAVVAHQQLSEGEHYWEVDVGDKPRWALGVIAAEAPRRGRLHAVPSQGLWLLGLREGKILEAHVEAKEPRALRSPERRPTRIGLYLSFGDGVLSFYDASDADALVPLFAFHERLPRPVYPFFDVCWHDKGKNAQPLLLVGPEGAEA", "from_the_text": "as §1"}, "UniProt Q969V5": {"biological_target": "T4, UniProt Q969V5 (Homo sapiens, UniProt Q969V5)", "T4 construct": "Cells were resuspended in cold PBS on ice and sonicated with a probe sonicator to achieve lysis; endogenous in cells", "T4 sequence (Q969V5 1-352)": "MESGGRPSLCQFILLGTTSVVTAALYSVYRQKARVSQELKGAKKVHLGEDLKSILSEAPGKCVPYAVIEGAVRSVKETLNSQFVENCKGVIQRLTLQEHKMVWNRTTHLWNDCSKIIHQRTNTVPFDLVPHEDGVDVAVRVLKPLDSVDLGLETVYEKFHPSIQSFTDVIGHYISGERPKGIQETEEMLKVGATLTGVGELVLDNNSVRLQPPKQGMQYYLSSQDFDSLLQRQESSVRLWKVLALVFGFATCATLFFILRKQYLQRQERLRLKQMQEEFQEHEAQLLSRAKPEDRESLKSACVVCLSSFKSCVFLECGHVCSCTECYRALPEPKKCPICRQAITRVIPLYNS", "conditions": "for percent inhibition: 100 uM", "from_the_text": "as §1"}, "UniProt Q96EX2": {"biological_target": "T5, UniProt Q96EX2 (Homo sapiens, UniProt Q96EX2)", "T5 construct": "200 μL of lysate containing 5 mg/ml proteome was treated with 2 μL of 100× compound stock; endogenous in cells", "T5 sequence (Q96EX2 1-444)": "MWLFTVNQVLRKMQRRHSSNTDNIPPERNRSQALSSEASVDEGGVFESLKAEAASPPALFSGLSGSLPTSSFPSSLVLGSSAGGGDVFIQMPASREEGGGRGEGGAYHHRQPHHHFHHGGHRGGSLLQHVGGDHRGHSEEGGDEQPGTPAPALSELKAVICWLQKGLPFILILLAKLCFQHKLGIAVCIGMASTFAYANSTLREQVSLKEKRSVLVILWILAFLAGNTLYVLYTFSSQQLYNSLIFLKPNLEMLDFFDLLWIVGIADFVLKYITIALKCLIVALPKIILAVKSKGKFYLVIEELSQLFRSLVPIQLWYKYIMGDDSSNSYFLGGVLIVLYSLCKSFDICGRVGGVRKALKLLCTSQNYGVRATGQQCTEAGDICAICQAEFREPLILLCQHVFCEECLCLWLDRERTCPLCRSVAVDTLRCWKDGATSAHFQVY", "conditions": "for inhibition at 100 µM / inhibition at 500 µM: read-out: percent_inhibition", "from_the_text": "as §1"}, "UniProt Q9C026": {"biological_target": "T6, UniProt Q9C026 (Homo sapiens, UniProt Q9C026)", "T6 construct": "200 μL of lysate containing 5 mg/ml proteome was treated with 2 μL of 100× compound stock; endogenous in cells", "T6 sequence (Q9C026 whole entry, change not shown)": "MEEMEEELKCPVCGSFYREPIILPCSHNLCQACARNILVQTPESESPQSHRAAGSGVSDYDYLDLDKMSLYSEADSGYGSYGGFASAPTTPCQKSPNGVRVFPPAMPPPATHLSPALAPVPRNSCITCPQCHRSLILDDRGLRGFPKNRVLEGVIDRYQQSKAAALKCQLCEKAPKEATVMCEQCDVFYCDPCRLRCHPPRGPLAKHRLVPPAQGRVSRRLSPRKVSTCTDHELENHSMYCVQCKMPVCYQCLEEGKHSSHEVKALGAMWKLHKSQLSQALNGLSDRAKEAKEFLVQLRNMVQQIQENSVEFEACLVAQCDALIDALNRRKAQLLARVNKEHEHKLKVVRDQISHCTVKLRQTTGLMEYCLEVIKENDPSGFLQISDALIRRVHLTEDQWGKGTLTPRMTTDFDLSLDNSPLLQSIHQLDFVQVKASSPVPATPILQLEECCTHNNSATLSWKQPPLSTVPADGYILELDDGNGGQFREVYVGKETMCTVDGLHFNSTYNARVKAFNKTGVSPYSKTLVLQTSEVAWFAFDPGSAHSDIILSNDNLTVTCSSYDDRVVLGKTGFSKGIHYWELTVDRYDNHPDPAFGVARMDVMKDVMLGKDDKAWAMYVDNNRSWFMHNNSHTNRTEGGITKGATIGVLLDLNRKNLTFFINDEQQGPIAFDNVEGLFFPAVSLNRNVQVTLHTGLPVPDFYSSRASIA", "from_the_text": "as §1"}, "UniProt O43164": {"biological_target": "T7, UniProt O43164 (Homo sapiens, UniProt O43164)", "T7 construct": "200 μL of lysate containing 5 mg/ml proteome was treated with 2 μL of 100× compound stock; endogenous in cells", "T7 sequence (O43164 whole entry, change not shown)": "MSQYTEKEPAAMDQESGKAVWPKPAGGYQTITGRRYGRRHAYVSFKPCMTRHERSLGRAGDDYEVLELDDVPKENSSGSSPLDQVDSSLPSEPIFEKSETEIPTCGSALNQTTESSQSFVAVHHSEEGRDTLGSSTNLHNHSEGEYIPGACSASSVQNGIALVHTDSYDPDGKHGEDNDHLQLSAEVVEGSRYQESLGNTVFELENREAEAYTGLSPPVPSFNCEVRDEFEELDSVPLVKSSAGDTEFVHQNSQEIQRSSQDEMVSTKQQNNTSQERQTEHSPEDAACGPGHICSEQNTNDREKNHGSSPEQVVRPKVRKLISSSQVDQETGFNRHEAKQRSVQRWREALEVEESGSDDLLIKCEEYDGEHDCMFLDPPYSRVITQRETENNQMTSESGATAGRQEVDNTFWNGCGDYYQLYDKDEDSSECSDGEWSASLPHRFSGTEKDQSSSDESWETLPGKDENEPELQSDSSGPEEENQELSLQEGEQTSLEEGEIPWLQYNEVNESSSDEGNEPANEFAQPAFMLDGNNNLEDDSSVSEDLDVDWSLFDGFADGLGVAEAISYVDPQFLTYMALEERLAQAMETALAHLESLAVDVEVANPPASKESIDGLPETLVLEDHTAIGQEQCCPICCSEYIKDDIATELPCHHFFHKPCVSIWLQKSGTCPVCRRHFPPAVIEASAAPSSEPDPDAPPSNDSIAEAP", "from_the_text": "as §1"}, "UniProt Q13233": {"biological_target": "T8, UniProt Q13233 (Homo sapiens, UniProt Q13233)", "T8 construct": "Cells were resuspended in cold PBS on ice and sonicated with a probe sonicator to achieve lysis; endogenous in cells", "T8 sequence (Q13233 whole entry, change not shown)": "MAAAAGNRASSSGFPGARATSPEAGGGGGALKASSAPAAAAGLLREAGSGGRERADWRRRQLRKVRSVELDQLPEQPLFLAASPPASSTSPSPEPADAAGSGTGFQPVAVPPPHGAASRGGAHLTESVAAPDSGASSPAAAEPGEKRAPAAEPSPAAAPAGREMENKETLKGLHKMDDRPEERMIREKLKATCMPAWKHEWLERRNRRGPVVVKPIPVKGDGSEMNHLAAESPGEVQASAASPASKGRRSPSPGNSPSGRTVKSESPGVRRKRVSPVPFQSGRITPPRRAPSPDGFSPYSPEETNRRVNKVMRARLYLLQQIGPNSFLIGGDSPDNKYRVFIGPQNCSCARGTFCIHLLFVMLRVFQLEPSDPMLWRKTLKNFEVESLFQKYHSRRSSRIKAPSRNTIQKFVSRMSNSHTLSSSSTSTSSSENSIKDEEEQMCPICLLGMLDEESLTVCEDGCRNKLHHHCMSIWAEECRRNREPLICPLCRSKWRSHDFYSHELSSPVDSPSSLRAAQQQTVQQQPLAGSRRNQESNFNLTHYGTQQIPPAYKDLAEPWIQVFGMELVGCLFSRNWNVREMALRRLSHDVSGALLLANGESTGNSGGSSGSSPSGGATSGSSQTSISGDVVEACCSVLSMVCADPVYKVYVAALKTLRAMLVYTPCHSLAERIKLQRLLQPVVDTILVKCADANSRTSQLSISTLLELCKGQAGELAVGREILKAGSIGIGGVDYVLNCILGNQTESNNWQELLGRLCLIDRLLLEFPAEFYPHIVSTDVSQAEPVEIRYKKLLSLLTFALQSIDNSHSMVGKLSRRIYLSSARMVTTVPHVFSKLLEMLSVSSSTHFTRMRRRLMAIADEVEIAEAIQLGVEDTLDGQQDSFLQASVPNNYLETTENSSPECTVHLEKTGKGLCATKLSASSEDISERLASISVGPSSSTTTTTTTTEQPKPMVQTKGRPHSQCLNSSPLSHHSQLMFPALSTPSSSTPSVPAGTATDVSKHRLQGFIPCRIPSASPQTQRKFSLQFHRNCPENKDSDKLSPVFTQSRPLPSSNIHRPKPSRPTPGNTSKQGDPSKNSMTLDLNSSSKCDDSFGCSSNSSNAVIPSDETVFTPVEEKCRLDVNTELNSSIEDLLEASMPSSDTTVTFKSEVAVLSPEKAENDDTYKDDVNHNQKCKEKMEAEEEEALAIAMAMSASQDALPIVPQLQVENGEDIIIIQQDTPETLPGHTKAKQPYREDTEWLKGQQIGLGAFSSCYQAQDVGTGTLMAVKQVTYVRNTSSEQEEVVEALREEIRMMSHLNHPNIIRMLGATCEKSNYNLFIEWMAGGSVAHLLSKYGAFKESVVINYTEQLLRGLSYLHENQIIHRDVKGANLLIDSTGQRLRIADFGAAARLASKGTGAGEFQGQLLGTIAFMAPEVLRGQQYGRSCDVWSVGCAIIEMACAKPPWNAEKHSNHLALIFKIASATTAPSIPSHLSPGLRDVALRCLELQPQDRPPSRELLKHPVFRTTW", "from_the_text": "as §1"}, "UniProt Q8WV22": {"biological_target": "T9, UniProt Q8WV22 (Homo sapiens, UniProt Q8WV22)", "T9 construct": "Cells were resuspended in cold PBS on ice and sonicated with a probe sonicator to achieve lysis; endogenous in cells", "T9 sequence (Q8WV22 1-266)": "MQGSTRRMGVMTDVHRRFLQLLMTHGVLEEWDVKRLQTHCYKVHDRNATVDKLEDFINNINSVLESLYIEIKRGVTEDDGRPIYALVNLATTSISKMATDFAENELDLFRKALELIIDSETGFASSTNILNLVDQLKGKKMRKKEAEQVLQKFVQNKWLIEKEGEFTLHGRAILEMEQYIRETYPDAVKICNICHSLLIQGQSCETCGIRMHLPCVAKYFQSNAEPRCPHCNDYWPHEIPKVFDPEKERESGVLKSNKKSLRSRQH", "from_the_text": "as §1"}, "UniProt Q969K3": {"biological_target": "T10, UniProt Q969K3 (Homo sapiens, UniProt Q969K3)", "T10 construct": "200 μL of lysate containing 5 mg/ml proteome was treated with 2 μL of 100× compound stock; endogenous in cells", "T10 sequence (Q969K3 whole entry, change not shown)": "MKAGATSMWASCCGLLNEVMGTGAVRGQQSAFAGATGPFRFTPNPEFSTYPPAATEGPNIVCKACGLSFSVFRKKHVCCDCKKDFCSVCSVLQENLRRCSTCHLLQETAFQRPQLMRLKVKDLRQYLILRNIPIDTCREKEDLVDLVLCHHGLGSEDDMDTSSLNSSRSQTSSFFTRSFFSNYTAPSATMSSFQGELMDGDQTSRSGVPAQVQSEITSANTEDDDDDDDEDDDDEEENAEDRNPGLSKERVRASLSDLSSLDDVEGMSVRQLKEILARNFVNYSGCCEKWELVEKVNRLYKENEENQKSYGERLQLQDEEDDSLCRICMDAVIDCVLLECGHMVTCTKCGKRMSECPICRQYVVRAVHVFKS", "from_the_text": "as §1"}, "[1]": {"conditions": "500 uM, read-out: KB02_500 uM_percent_inhibition"}, "[2]": {"conditions": "read-out: KB05_100 uM_percent_inhibition"}}, "note": "Where two headings read alike, the source gives them in different places.", "data": [{"smiles": "COc1ccc2c(c1)CCCN2C(=O)CCl", "note": "[KB02]", "values": [{"measurement": "inhibition at 100 µM", "setting": "UniProt Q495X7; 100 uM, read-out: KB02_100 uM_percent_inhibition", "value": 15, "unit": "%"}, {"measurement": "inhibition at 500 µM", "setting": "UniProt Q495X7; [1]", "value": 44, "unit": "%"}, {"measurement": "inhibition at 500 µM", "setting": "UniProt Q6VVB1; read-out: KB02_500 uM_percent_inhibition", "value": 9, "unit": "%"}, {"measurement": "inhibition at 100 µM", "setting": "UniProt Q6ZMU5; read-out: KB02_100 uM_percent_inhibition", "value": 36, "unit": "%"}, {"measurement": "percent inhibition", "setting": "UniProt Q969V5", "value": 35, "unit": "%"}, {"measurement": "inhibition at 100 µM", "setting": "UniProt Q969V5; read-out: percent inhibition", "value": 25, "unit": "%"}, {"measurement": "inhibition at 100 µM", "setting": "UniProt Q96EX2", "value": 44, "unit": "%"}, {"measurement": "inhibition at 500 µM", "setting": "UniProt Q96EX2; 500 uM", "value": 42, "unit": "%"}, {"measurement": "KB02_500 uM_percent_inhibition", "setting": "UniProt Q9C026; 500 uM", "value": 69, "unit": "%"}, {"measurement": "inhibition at 500 µM", "setting": "UniProt Q9C026; [1]", "value": 64, "unit": "%"}]}, {"smiles": "C=CC(=O)N(c1ccccc1)c1ccc(Br)cc1", "note": "[KB05]", "values": [{"measurement": "inhibition at 100 µM", "setting": "UniProt O43164; [2]", "value": 1, "unit": "%"}, {"measurement": "inhibition at 100 µM", "setting": "UniProt Q13233; read-out: percent inhibition", "value": 31, "unit": "%"}, {"measurement": "inhibition at 500 µM", "setting": "UniProt Q6VVB1; read-out: KB05_500 uM_percent_inhibition", "value": 15, "unit": "%"}, {"measurement": "KB05_100 uM_percent_inhibition", "setting": "UniProt Q6ZMU5; 100 uM", "value": 8, "unit": "%"}, {"measurement": "inhibition at 100 µM", "setting": "UniProt Q6ZMU5; [2]", "value": 6, "unit": "%"}, {"measurement": "inhibition at 100 µM", "setting": "UniProt Q8WV22; 100 uM, read-out: KB05_100 uM_percent_inhibition", "value": 13, "unit": "%"}, {"measurement": "KB05_500 uM_percent_inhibition", "setting": "UniProt Q8WV22; 500 uM", "value": 66, "unit": "%"}, {"measurement": "inhibition at 500 µM", "setting": "UniProt Q8WV22; 500 uM, read-out: KB05_500 uM_percent_inhibition", "value": 64, "unit": "%"}, {"measurement": "inhibition at 100 µM", "setting": "UniProt Q969K3; read-out: percent_inhibition", "value": 8, "unit": "%"}, {"measurement": "inhibition at 100 µM", "setting": "UniProt Q96EX2", "value": 17, "unit": "%"}, {"measurement": "percent_inhibition", "setting": "UniProt Q96EX2; 500 uM", "value": 29, "unit": "%"}, {"measurement": "inhibition at 500 µM", "setting": "UniProt Q96EX2; 500 uM", "value": 16, "unit": "%"}]}, {"smiles": "O=C(CCl)Nc1cc(C(F)(F)F)cc(C(F)(F)F)c1", "note": "[KBO3]", "values": [{"measurement": "KB03_100 uM_percent_inhibition", "setting": "UniProt O43164; 100 uM", "value": 22, "unit": "%"}, {"measurement": "percent inhibition", "setting": "UniProt Q13233; 100 uM", "value": 19, "unit": "%"}, {"measurement": "KB03_100 uM_percent_inhibition", "setting": "UniProt Q495X7; 100 uM", "value": 27, "unit": "%"}, {"measurement": "KB03_500 uM_percent_inhibition", "setting": "UniProt Q495X7; 500 uM", "value": 43, "unit": "%"}, {"measurement": "KB03_100 uM_percent_inhibition", "setting": "UniProt Q8WV22; 100 uM", "value": 2, "unit": "%"}, {"measurement": "percent_inhibition", "setting": "UniProt Q969K3; 100 uM", "value": 18, "unit": "%"}, {"measurement": "percent inhibition", "setting": "UniProt Q969V5", "value": 38, "unit": "%"}, {"measurement": "KB03_100 uM_percent_inhibition", "setting": "UniProt Q9C026; 100 uM", "value": 13, "unit": "%"}]}]}
